Source: US20230131192A1, “1H-PYRAZOLO[4,3-d]PYRIMIDINE COMPOUNDS AS TOLL-LIKE RECEPTOR 7 (TLR7) AGONISTS” (BRISTOL-MYERS SQUIBB COMPANY, priority 2020, published 2023)

Legend:
[1] = biological target: T1, human TLR7 (Homo sapiens, UniProt Q9NYK1); test: Human TLR7 agonist (reporter) activity assay, HEK-Blue TLR7 cells, SEAP reporter; format: cell-based; conditions: 18 h treatment, average where assay was performed multiple times, read-out: hTLR7 Agonism EC50
T1 construct: host or cells: HEK-Blue TLR7 cells (engineered human embryonic kidney cells)
T1 sequence (Q9NYK1 27-1049): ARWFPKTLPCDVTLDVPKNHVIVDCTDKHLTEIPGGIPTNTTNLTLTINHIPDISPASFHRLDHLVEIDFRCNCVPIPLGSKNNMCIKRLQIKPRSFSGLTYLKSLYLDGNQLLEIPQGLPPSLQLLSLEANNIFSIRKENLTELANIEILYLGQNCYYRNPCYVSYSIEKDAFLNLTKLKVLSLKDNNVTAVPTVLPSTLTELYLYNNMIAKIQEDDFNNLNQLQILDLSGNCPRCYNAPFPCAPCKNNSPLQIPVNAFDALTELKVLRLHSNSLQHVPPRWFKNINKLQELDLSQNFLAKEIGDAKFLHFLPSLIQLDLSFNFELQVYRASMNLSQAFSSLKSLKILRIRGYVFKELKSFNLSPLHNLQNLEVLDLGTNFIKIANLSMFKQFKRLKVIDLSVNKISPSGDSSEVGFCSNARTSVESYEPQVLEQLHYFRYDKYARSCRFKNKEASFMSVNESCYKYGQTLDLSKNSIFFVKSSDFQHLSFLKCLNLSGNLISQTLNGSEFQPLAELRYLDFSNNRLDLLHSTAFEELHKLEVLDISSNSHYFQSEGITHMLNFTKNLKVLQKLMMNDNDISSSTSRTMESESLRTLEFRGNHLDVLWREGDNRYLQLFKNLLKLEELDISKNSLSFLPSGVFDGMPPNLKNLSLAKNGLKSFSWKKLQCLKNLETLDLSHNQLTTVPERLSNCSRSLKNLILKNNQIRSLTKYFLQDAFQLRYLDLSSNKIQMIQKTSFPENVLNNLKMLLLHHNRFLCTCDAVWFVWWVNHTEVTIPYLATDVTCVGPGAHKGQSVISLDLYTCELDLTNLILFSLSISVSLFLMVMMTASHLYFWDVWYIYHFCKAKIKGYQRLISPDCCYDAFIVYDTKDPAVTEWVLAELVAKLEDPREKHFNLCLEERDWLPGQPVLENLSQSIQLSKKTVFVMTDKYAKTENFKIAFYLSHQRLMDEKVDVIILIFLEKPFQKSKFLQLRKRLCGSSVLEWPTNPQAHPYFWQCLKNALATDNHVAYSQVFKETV
Method: This procedure describes a method for assaying human TLR7 (hTLR7) agonist activity of the compounds disclosed in this specification.
HEK-Blue™ TLR7 cells were added to each well of a 384-well tissue-culture plate (15,000 cells per well) and incubated 16-18 h at 37° C., 5% CO2. Compounds (100 nl) were dispensed into wells containing the HEK-Blue™ TLR cells and the treated cells were incubated at 37° C., 5% CO2. After 18 h treatment ten microliters of freshly-prepared Quanti-Blue™ reagent (Invivogen) was added to each well, incubated for 30 min (37° C., 5% CO2) and SEAP levels measured using an Envision plate reader (OD=620 nm). The half maximal effective concentration values (EC50; compound concentration which induced a response halfway between the assay baseline and maximum) were calculated.

[2] = test system: CD69; test: Induction of CD69 in human whole blood; format: cell-based; conditions: 17 hrs, CD69 surface staining, 100% set to 1 uM of resiquimod, average where assay was performed multiple times, read-out: hWB CD69 EC50
Method: The induction of Type I interferon (IFN) MX-1 genes and the B-cell activation marker CD69 are downstream events that occur upon activation of the TLR7 pathway. The following is a human whole blood assay that measures their induction in response to a TLR7 agonist.
Heparinized human whole blood was harvested from human subjects and treated with test TLR7 agonist compounds at 1 mM. The blood was diluted with RPMI 1640 media and Echo was used to predot 10 nL per well giving a final concentration of 1 uM (10 nL in 10 uL of blood). After mixing on a shaker for 30 sec, the plates were covered and placed in a 37° C. chamber for o/n=17 hrs. Fixing/lysis buffer was prepared (5×→1× in H2O, warm at 37° C.; Cat # BD 558049) and kept the perm buffer (on ice) for later use.
For surface markers staining (CD69): prepared surface Abs: 0.045 ul hCD14-FITC (ThermoFisher Cat # MHCD1401)+0.6 ul hCD19-ef450 (ThermoFisher Cat #48-0198-42)+1.5 ul hCD69-PE (cat # BD555531)+0.855 ul FACS buffer. Added 3 ul/well, spin1000 rpm for 1 min and mixed on shaker for 30 sec, put on ice for 30 mins. Stop stimulation after 30 minutes with 70 uL of prewarmed 1× fix/lysis buffer and use Feliex mate to resuspend (15 times, change tips for each plate) and incubate at 37 C for 10 minutes.
Centrifuge at 2000 rpm for 5 minutes aspirate with HCS plate washer, mix on shaker for 30 sec and then wash with 70 uL in dPBS and pelleted 2×s (2000 rpm for 5 min) and 50 ul wash in FACS buffer pelleted 1×s(2000 rpm for 5 min). Mix on shaker for 30 sec. For Intracellular markers staining (MX-1): Add 50 ul of BD Perm buffer III and mix on shaker for 30 sec. Incubate on ice for 30 minutes (in the dark). Wash with 50 uL of FACS buffer 2× (spin @2300 rpm×5 min after perm) followed by mixing on shaker for 30 sec. Resuspended in 20 ul of FACS buffer containing MX1 antibody ( )(4812)-Alexa 647: Novus Biologicals #NBP2-43704AF647) 20 ul FACS bf+0.8 ul hlgG+0.04 ul MX-1. Spin 1000 rpm for 1 min, mix on shaker for 30se and the samples were incubated at RT in the dark for 45 minutes followed by washing 2×FACS buffer (spin @2300 rpm×5 min after perm). Resuspend 20 ul (35 uL total per well) of FACS buffer and cover with foil and place in 4° C. to read the following day. Plates were read on iQuePlus. The results were loaded into toolset and […] curves are generated in curve master. The y-axis 100% is set to 1 uM of resiquimod.

Row | EC50 [1] [µM] | EC50 [2] [µM] | Structure (SMILES)
1 | 1.33 | 0.163 | COc1cc(CNC2CCOCC2)ccc1Cn1ncc2nc(N)nc(NCC[C@@H](O)C3CC3)c21 [Compound 109b, (1R)-3-({5-amino-1-[(2-methoxy-4-{[(oxan-4-yl)amino]methyl}phenyl)methyl]-1H-pyrazolo[4,3-d]pyrimidin-7-yl}amino)-1-cyclopropylpropan-1-ol]
2 | 0.57 | 0.221 | COc1cc(CNC2CN(S(C)(=O)=O)C2)ccc1Cn1ncc2nc(N)nc(NCc3noc(C)n3)c21 [Compound 122, 1-[(4-{[(1-methanesulfonylazetidin-3-yl)amino]methyl}-2-methoxyphenyl)methyl]-N7-[(5-methyl-1,2,4-oxadiazol-3-yl)methyl]-1H-pyrazolo[4,3-d]pyrimidine-5,7-diamine]
3 | 1 | 0.0727 | COc1cc(CN2CCN(CCO)CC2)cnc1Cn1ncc2nc(N)nc(NCc3noc(C)n3)c21 [Compound 131, 2-[4-({6-[(5-amino-7-{[(5-methyl-1,2,4-oxadiazol-3-yl)methyl]amino}-1H-pyrazolo[4,3-d]pyrimidin-1-yl)methyl]-5-methoxypyridin-3-yl}methyl)piperazin-1-yl]ethan-1-ol]
4 | 0.0672 | 0.0155 | COc1cc(CN2CCN(C)CC2)ccc1Cn1ncc2nc(N)nc(NCc3noc(C)n3)c21 [Compound 115, 1-({2-methoxy-4-[(4-methylpiperazin-1-yl)methyl]phenyl}methyl)-N7-[(5-methyl-1,2,4-oxadiazol-3-yl)methyl]-1H-pyrazolo[4,3-d]pyrimidine-5,7-diamine]
5 | 0.0746 | 0.0258 | COc1cc(CNC2CCC2)ccc1Cn1ncc2nc(N)nc(NCc3cc(C)on3)c21 [Compound 102, 1-({4-[(cyclobutylamino)methyl]-2-methoxyphenyl}methyl)-N7-[(5-methyl-1,2-oxazol-3-yl)methyl]-1H-pyrazolo[4,3-d]pyrimidine-5,7-diamine]
6 | 0.298 | 0.0347 | COc1cc(CN2CCC(S(C)(=O)=O)CC2)ccc1Cn1ncc2nc(N)nc(NCc3noc(C)n3)c21 [Compound 119, 1-({4-[(4-methanesulfonylpiperidin-1-yl)methyl]-2-methoxyphenyl}methyl)-N7-[(5-methyl-1,2,4-oxadiazol-3-yl)methyl]-1H-pyrazolo[4,3-d]pyrimidine-5,7-diamine]
7 | 0.196 | 0.0182 | COc1cc(CNC2CCN(S(C)(=O)=O)CC2)ccc1Cn1ncc2nc(N)nc(NCc3noc(C)n3)c21 [Compound 123, 1-[(4-{[(1-methanesulfonylpiperidin-4-yl)amino]methyl}-2-methoxyphenyl)methyl]-N7-[(5-methyl-1,2,4-oxadiazol-3-yl)methyl]-1H-pyrazolo[4,3-d]pyrimidine-5,7-diamine]
8 | 0.1 | 0.0405 | COc1cc(CN2CCN(C)CC2)ccc1Cn1nc(C)c2nc(N)nc(NCc3cc(C)on3)c21 [Compound 113, 1-({2-methoxy-4-[(4-methylpipeazin-1-yl)methyl]phenyl}methyl)-3-methyl-N7-[(5-methyl-1,2-oxazol-3-yl)methyl]-1H-pyrazolo[4,3-d]pyrimidine-5,7-diamine]
9 | 0.0791 | 0.0196 | COc1cc(CNC2CCOCC2)ccc1Cn1ncc2nc(N)nc(NCc3noc(C)n3)c21 [Compound 114, 1-[(2-methoxy-4-{[(oxan-4-yl)amino]methyl}phenyl)methyl]-N7-[(5-methyl-1,2,4-oxadiazol-3-yl)methyl]-1H-pyrazolo[4,3-d]pyrimidine-5,7-diamine]
10 | 0.138 | 0.0152 | COc1cc(CN2CC(OC)C2)ccc1Cn1ncc2nc(N)nc(N[C@H](CO)CC3CC3)c21 [Compound 125, (2S)-2-{[5-amino-1-({2-methoxy-4-[(3-methoxyazetidin-1-yl)methyl]phenyl}methyl)-1H-pyrazolo[4,3-d]pyrimidin-7-yl]amino}-3-cyclopropylpropan-1-ol]
11 | 0.0186 | 0.0014 | COc1cc(CN2CCN(CCO)CC2)ccc1Cn1ncc2nc(N)nc(NCc3noc(C)n3)c21 [Compound 117, 2-[4-({4-[(5-amino-7-{[(5-methyl-1,2,4-oxadiazol-3-yl)methyl]amino}-1H-pyrazolo[4,3-d]pyrimidin-1-yl)methyl]-3-methoxyphenyl}methyl)piperazin-1-yl]ethan-1-ol]
12 | 0.176 | 0.0588 | COc1cc(CN2CCC(S(C)(=O)=O)CC2)ccc1Cn1ncc2nc(N)nc(NCc3cc(C)on3)c21 [Compound 111]
13 | 0.0466 | 0.0059 | COc1cc(CNC2CCC2)ccc1Cn1ncc2nc(N)nc(NCc3noc(C)n3)c21 [Compound 107, 1-({4-[(cyclobutylamino)methyl]-2-methoxyphenyl}methyl)-N7-[(5-methyl-1,2,4-oxadiazol-3-yl)methyl]-1H-pyrazolo[4,3-d]pyrimidine-5,7-diamine]
14 | 0.354 | 0.472 | COc1cc(CO)ccc1Cn1ncc2nc(N)nc(NCc3cc(C)on3)c21 [Compound 101, {4-[(5-amino-7-{[(5-methyl-1,2-oxazol-3-yl)methyl]amino}-1H-pyrazolo[4,3-d]pyrimidin-1-yl)methyl]-3-methoxyphenyl}methanol]
15 | 1.35 | 0.085 | COc1cc(CNC2CCOCC2)cnc1Cn1ncc2nc(N)nc(NCc3noc(C)n3)c21 [Compound 130, 1-[(3-methoxy-5-{[(oxan-4-yl)amino]methyl}pyridin-2-yl)methyl]-N7-[(5-methyl-1,2,4-oxadiazol-3-yl)methyl]-1H-pyrazolo[4,3-d]pyrimidine-5,7-diamine]
16 | 0.485 | 0.438 | COc1cc(CN2CCN(S(C)(=O)=O)CC2)ccc1Cn1ncc2nc(N)nc(NCc3cc(C)on3)c21 [Compound 110, 1-({4-[(4-methanesulfonylpiperazin-1-yl)methyl]-2-methoxyphenyl}methyl)-N7-[(5-methyl-1,2-oxazol-3-yl)methyl]-1H-pyrazolo[4,3-d]pyrimidine-5,7-diamine]
